Data set [1] deals with Oryctolagus sp. To be noted: acute; dermal; occlusive; New Zealand.
Data set [2] deals with Canidae. The settings on record: oral.
For data set [3], the system named is Rattus norvegicus. To be noted: for LC50 / LD50: acute.
In data set [4] the test system is Mus musculus.
Data set [5] concerns Canidae. To be noted: subchronic; duration: 90 days; oral; capsule / gavage; M/F; Beagle; Protruding nictitating membranes, dilated pupils, eye redness and decreased indirect pupillary light response.
Data set [6] concerns Rattus norvegicus. The settings on record: oral.
In data set [7] the test system is Cavia porcellus. To be noted: acute; Inhalation; Guinea Pig.
Data set [8] relates to Rattus norvegicus. The settings on record: Hershberger; duration: 10 days; oral; gavage; Sprague-Dawley; inactive + Negative + Negative + neither + negative.
Data set [9] has as its system Rattus norvegicus. The settings on record: chronic; duration: 2 years; oral; diet; M/F; reduced body weight (males), inflammatory foci in kidneys of females.
Setting [10] is: chronic, duration: 118 weeks, oral, diet, F, Sprague-Dawley.
Setting [11] is: chronic, duration: 118 weeks, oral, diet, M, Sprague-Dawley.
Setting [12] is: developmental, duration: 20 days, oral, drinking water, Osborne-Mendel.
[13] abbreviates: reproduction developmental, duration: 27 weeks, oral, diet, Charles River Ceesarean albino, generation: F0.
Where [14] appears, read: reproduction developmental, duration: 118 weeks, oral, diet, F, Sprague-Dawley.
[15] abbreviates: reproduction developmental, duration: 118 weeks, oral, diet, M, Sprague-Dawley.
The mark [16] stands for this setting: reproduction developmental, oral, diet, Crl:CD(SD).
Setting [17] is: reproduction developmental, Long-Evans, Micromelia, ectromelia, curved femur and microfetalis.

The values below come from EPA's ToxValDB 9.5.

Each structure is given as a SMILES string.

`CC(C)(C)c1cc(CCC(=O)OCCSCCOC(=O)CCc2cc(C(C)(C)C)c(O)c(C(C)(C)C)c2)cc(C(C)(C)C)c1O`: the LD50 (commonly the dose at which mortality reaches 50%) in [1] is more than 3000 mg/kg; in data set [3] (oral, gavage), more than 5000 mg/kg. The NOAEL (commonly the highest dose or exposure tested at which no adverse effect was seen) stood at 74 mg/kg-day in data set [2] (subchronic, duration: 90 days, diet, Beagle); 4.5 mg/kg-day in data set [3] (chronic, duration: 93 days, oral, diet, F); 4.4 mg/kg-day in data set [3] (chronic, duration: 93 days, oral, diet, M); 960 mg/kg-day in [3] (subchronic, duration: 90 days, oral, diet). For the same compound, the LC50 in data set [3] (inhalation, whole body) is more than 6300 mg/m3.
For the compound `COc1cc(S(=O)(=O)[O-])c(C)cc1N=Nc1c(O)ccc2cc(S(=O)(=O)[O-])ccc12.[Na+].[Na+]`, in [4] (chronic, duration: 104 weeks, oral, diet, CD1), the “NOAEL (% diet)” value was more than 5.19. Also, the LD50 in [2] (acute, gavage, Dog Other) was more than 5000 mg/kg; in [3] (oral, gavage, Sprague-Dawley), more than 10000 mg/kg. The LOAEL (as a rule, the lowest dose or exposure tested at which an adverse effect was seen) was 3600 mg/kg-day in data set [3] (setting [10]); more than 2830 mg/kg-day in [3] (setting [11]); 546 mg/kg-day in [3] (setting [12]); 51900 ppm in [3] (setting [13]); 3600 mg/kg-day in data set [3] (setting [14]); more than 2830 mg/kg-day in data set [3] (setting [15]). In addition, the LOAEL in [3] (reproduction developmental, duration: 20 days, oral, drinking water, Osborne-Mendel, generation: F1) came to 546 mg/kg-day; in data set [3] (setting [16]), 51900 ppm. For the same compound, the NOAEL came out at 901 mg/kg-day in [3] (setting [10]); 2830 mg/kg-day in [3] (setting [11]); 1000 mg/kg-day in data set [3] (developmental, duration: 19 days, oral, gavage, Osborne-Mendel); 274 mg/kg-day in data set [3] (setting [12]); 13900 ppm in data set [3] (setting [13]); 901 mg/kg-day in data set [3] (setting [14]). In addition, the NOAEL in [3] (setting [15]) is 2830 mg/kg-day; in [3] (reproduction developmental, duration: 19 days, oral, gavage, F, Osborne-Mendel), 1000 mg/kg-day; in [3] (reproduction developmental, duration: 20 days, oral, drinking water, F, Osborne-Mendel), 939 mg/kg-day; in data set [3] (setting [16]), 13900 ppm.
For `CN1C(=O)[C@]23C[C@H]4C(C)(C)[C@]5(CNc6c5ccc5c6OC=CC(C)(C)O5)C[C@@]41CN2CC[C@@]3(C)O`, the LOAEL in data set [5] turned out to be 0.1 mg/kg-day.
Turning to `CCCSc1ccc2nc(NC(=O)OC)[nH]c2c1` [Albendazole], in data set [6] (setting [17]), the LOEL came out at 10 mg/kg-day and the NOEL stood at 5 mg/kg-day.
With `COC[C@H]1O[C@@H](OC2OC[C@@H]3O[C@]4(O[C@H]3[C@H]2OC(=O)C(C)C)O[C@H](C)[C@@](O)(C(C)=O)[C@@H]2OCO[C@H]24)[C@@H](OC)[C@@H](O)[C@@H]1O[C@@H]1O[C@H](C)[C@H](OC)[C@H](O[C@H]2C[C@@]3(C)OC4(C[C@@H](O)[C@H](O[C@H]5C[C@@H](O)[C@H](OC(=O)c6c(C)c(Cl)c(O)c(Cl)c6OC)[C@@H](C)O5)[C@@H](C)O4)O[C@@H]3[C@@H](C)O2)[C@H]1O` (some centres not stated) [Avilamycin], the NOEL in data set [6] (reproduction developmental, duration: 2 years, diet, M/F, Sprague-Dawley, no effects) came out at 150 mg/kg-day.
Consider `CCCCOCCOCCOCOCCOCCOCCCC` [Bis(butoxyethoxyethoxy)methane], for which the LC50 in data set [4] (acute, Inhalation, Swiss-Webster) was more than 200 µg/mL; in [7], more than 200 µg/mL; in data set [3] (Inhalation, Wistar) it was more than 200 µg/mL. Moreover, the LD50 in [3] (dermal, occlusive, Sprague-Dawley) is more than 2000 mg/kg; in [3] (oral, Sprague-Dawley), more than 2000 mg/kg. Moreover, the NOAEL in data set [3] (developmental, duration: 9 weeks, oral, gavage, Sprague-Dawley) worked out at 100 mg/kg-day; in [3] (reproduction developmental, duration: 9 weeks, oral, gavage, F, Sprague-Dawley) it was 100 mg/kg-day; in data set [3] (reproduction developmental, duration: 9 weeks, oral, gavage, Sprague-Dawley) it was 100 mg/kg-day; in data set [3] (reproduction developmental, duration: 9 weeks, oral, gavage, Sprague-Dawley, generation: F0), 100 mg/kg-day; in data set [3] (reproduction developmental, duration: 9 weeks, oral, gavage, Sprague-Dawley, generation: F1), 100 mg/kg-day.
With `CC1(C)C(C=C(Cl)Cl)C1C(=O)OC(C#N)c1ccc(F)c(Oc2ccccc2)c1` (configuration not stated) [Cyfluthrin], the NOEL in data set [8] worked out at 20 mg/kg-day; in data set [9] it was 2.5 mg/kg-day; in [6] (chronic, duration: 2 years, diet, M/F, Wistar, Depressed bodyweight gain), 2 mg/kg-day; in data set [6] (dietary / carcinogenicity, duration: 2 years, feed, M/F, Wistar, Depressed bodyweight gain), 2 mg/kg-day. In data set [9], this compound gave an LEL of 7.5 mg/kg-day.
